Biological target: Lysine-specific histone demethylase 1A (Homo sapiens, UniProt O60341)
Assay: LANCE LSD1/KDM1A Demethylase Assay: 10 μL of 1 nM LSD-1 enzyme (ENZO BML-SE544-0050) in the assay buffer (50 mM Tris, pH 7.5, 0.01% Tween-20, 25 mM NaCl, 5 mM DTT) were preincubated for 1 hour at 25° C. with 0.8 μL compound/DMSO dotted in black 384 well polystyrene plates. Reactions were started by addition of 10 μL of assay buffer containing […] Biotin-labeled Histone H3 peptide substrate: ART-K(Me1)-QTARKSTGGKAPRKQLA-GGK(Biotin) SEQ ID NO:1 (AnaSpec 64355) and incubated for 1 hour at 25° C. Reactions were stopped by addition of 10 μL 1× LANCE Detection Buffer (PerkinElmer CR97-100) supplemented with 1.5 nM Eu-anti-unmodified H3K4 Antibody (PerkinElmer TRF0404), and 225 nM LANCE Ultra Streptavidin (PerkinElmer TRF102) along with 0.9 mM Tranylcypromine-HCl (Millipore 616431). After stopping the reactions plates were incubated for 30 minutes and read on a PHERAstar FS plate reader (BMG Labtech).

Compound: COC(=O)N(C)c1cc(-c2c(-c3ccc(C#N)cc3)nc(OC[C@@H]3CCCN(C)C3)c3nccn23)ccc1C
- IC50: < 50 nM

— ChEMBL document CHEMBL5725316, “Substituted imidazo[1,2-a]pyrazines as LSD1 inhibitors” (2017)
